US20170049781A1, “HSP90 INHIBITOR COMBINATIONS” (Novartis AG, priority 2008, published 2017)

Tests used:
Format in all cases: cell-based, human
[1] = tested on: phosphorylated AKT (P-AKT(S473), T308); test: Western blot of AKT phosphorylation in MDA-MB-231 breast tumor cells; conditions: MDA-MB-231 cells
Method: (§1) Two cancer derived cell lines are used (BT474 and MDA-MB-231). These are human breast carcinoma cell lines. The cell lines are commercially available from American Type Culture Collection (ATCC). BT474 cells are maintained in Hybri-Care medium (ATCC) supplemented with 10% v/v fetal calf serum and 2 mM L-glutamine. MDB-MB-231 cells are grown in RPMI 1640 medium (Animed, Allschwil, Switzerland) supplemented with 10% v/v fetal calf serum and 2 mM L-glutamine. The media are supplemented with 100 microgramm/ml penicillin/streptomycin and cells are maintained at 37° C. in 5% CO2.
(§2) After division and medium change, cells from stock culture are seeded at a density of 3.3×10^4 cells/cm^2 (BT474) and 1.2×10^4 cells/cm^2 (MDB-MB-231) on cell plates and incubated for 48 hours at 37° C. and 5% CO2 prior to the treatment with DMSO vehicle, 20 nM everolimus (RAD001) and/or various concentrations of AUY922 (compound 1) for 24 hours. To prepare cell lysates culture plates are washed once with ice-cold phosphor buffered saline (PBS) containing 1 mM phenylmethylsulfonyl fluoride (PMSF) and once with ice-cold extraction buffer (50 mM Hepes pH 7.4, 150 mM NaCl, 25 mM beta-glycerophosphate, 25 mM NaF, 5 mM EGTA, 1 mM EDTA, 15 mM PPi, 2 mM sodium orthovanadate, 10 mM sodium molybdate, leupeptin (10 microgramm/ml), aprotinin (10 microgramm/ml), 1 mM DTT and 1 mM PMSF. Cells are extracted in the same buffer, containing 1% NP-40. The extracts are homogenized, cleared by centrifugation, aliquoted and frozen at −80° C. Protein concentration is determined with the BCA Protein Assay (Pierce, Rockford, Ill., USA).
(§3) Twenty micrograms of cell extracts are resolved electrophoretically on 12% denaturing sodium dodecyl sulfate polyacrylamide gels (SDS-PAGE) and transferred to polyvinylidene difluoride filters by wet-blotting (1 hour at 250 mA) and probed overnight at 4° C. with the following primary antibodies:
(§4) anti-phospho-Akt (Ser473) (clone 14-05; 1:2000) obtained from DAKO (Glostrup, Denmark) and diluted in PBS, 0.5% v/v Tween. […]

AKT = test: Western blot of AKT levels in MDA-MB-231 breast tumor cells; conditions: MDA-MB-231 cells, 100 nM Compound I
Method: as §1
After division and medium change, cells from stock culture are seeded at a density of 3.3×10^4 cells/cm^2 (BT474) and 1.2×10^4 cells/cm^2 (MDB-MB-231) on cell plates and incubated for 48 hours at 37° C. and 5% CO2 prior to the treatment with DMSO vehicle, 20 nM everolimus (RAD001) and/or various concentrations of AUY922 (compound 1) for 24 hours. […]

[2] = tested on: phosphorylated AKT (P-AKT(S473) and P-AKT(T308)); test: Western blot of AKT phosphorylation in BT474 breast tumor cells
Method: as §1, §2, §3, §4

SMILES | AKT phosphorylation (P-AKT(S473)) ([1]; 50-100 nM compound I, 24 hours) | AKT levels (AKT) | AKT phosphorylation (P-AKT(S473) and P-AKT(T308)) ([2]; BT474 cells, 50-100 nM compound I, 24 hours) | levels of phosphorylated AKT (P-AKT(S473)) compared to an untreated control ([1]; 20 nM RAD001, 24 hours) | phosphorylation of AKT at amino acid residue T308 on addition of RAD001 in the presence of compound I ([1]; 20 nM RAD001 in the presence of 50-100 nM compound I (combination)) | AKT phosphorylation (P-AKT(S473) and P-AKT(T308)) on addition of RAD001 in the presence of compound I ([2]; BT474 cells, 20 nM RAD001 in the presence of 50-100 nM compound I (combination)) | levels of phosphorylated AKT (P-AKT(S473) and P-AKT(T308)) compared to an untreated control ([2]; BT-474 cells, 20 nM RAD001, 24 hours)
COc1cccc(-c2ccccc2[C@H]2Cc3nc(N)nc(C)c3C(=O)N2)n1 [compound I, (R)-2-amino-7-[2-(6-methoxy-pyridin-2-yl)-phenyl]-4-methyl-7,8-dihydro-6H-pyrido[4,3-d]pyrimidin-5-one] | diminished | slightly decreased | diminished |  |  |  | 
CO[C@H]1C[C@@H]2CC[C@@H](C)[C@@](O)(O2)C(=O)C(=O)N2CCCC[C@H]2C(=O)O[C@H]([C@H](C)C[C@@H]2CC[C@@H](OCCO)[C@H](OC)C2)CC(=O)[C@H](C)/C=C(\C)[C@@H](O)[C@@H](OC)C(=O)[C@H](C)C[C@H](C)/C=C/C=C/C=C/1C [RAD001, 40-O-(2-hydroxyethyl)-rapamycin] |  |  |  | increased levels of phosphorylated AKT | did not cause increased phosphorylation of AKT | did not cause increase in AKT phosphorylation | increased levels of phosphorylated AKT
